Results: PubChem BioAssay AID248 (DTP/NCI, 2004)
Toxic doses and inconclusive results are not listed. No stated cut-off is given here; in the data, active means T/C of 150% or more; inactive means T/C below 125%.

Tested on: L1210 leukemia ip in BDF1 mice, survival T/C
Experiment: NCI In Vivo Anticancer Drug Screen. Data for tumor model L1210 Leukemia (intraperitoneal) in B6D2F1 (BDF1) mice
Details: endpoint: mean survival time, higher = longer survival
Method in brief: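 Ratio derived from survival: compound-dosed mice over vehicle-dosed mice, all bearing a transplantable tumor.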

[1] = dose: 100.0 mg/kg/injection, schedule: Q01DX009 (ip), vehicle: Klucel (hydroxypropylcellulose) (HPC)
[2] = dose: 100.0 mg/kg/injection, schedule: Q04DX003 (ip), vehicle: Klucel (hydroxypropylcellulose) (HPC)
[3] = dose: 200.0 mg/kg/injection, schedule: Q01DX009 (ip), vehicle: Klucel (hydroxypropylcellulose) (HPC)
[4] = dose: 200.0 mg/kg/injection, schedule: Q04DX003 (ip), vehicle: Klucel (hydroxypropylcellulose) (HPC)
[5] = dose: 400.0 mg/kg/injection, schedule: Q01DX009 (ip), vehicle: Klucel (hydroxypropylcellulose) (HPC)
[6] = dose: 400.0 mg/kg/injection, schedule: Q04DX003 (ip), vehicle: Klucel (hydroxypropylcellulose) (HPC)
[7] = dose: 100.0 mg/kg/injection, schedule: Q01DX009 (ip), vehicle: saline
[8] = dose: 200.0 mg/kg/injection, schedule: Q01DX009 (ip), vehicle: saline
[9] = dose: 400.0 mg/kg/injection, schedule: Q01DX009 (ip), vehicle: saline
[10] = dose: 100.0 mg/kg/injection, schedule: Q01DX001 (ip), vehicle: saline
[11] = dose: 200.0 mg/kg/injection, schedule: Q01DX001 (ip), vehicle: saline
[12] = dose: 100.0 mg/kg/injection, schedule: Q01DX009 (ip), vehicle: saline with Tween-80
[13] = dose: 100.0 mg/kg/injection, schedule: Q04DX003 (ip), vehicle: saline with Tween-80
[14] = dose: 200.0 mg/kg/injection, schedule: Q01DX009 (ip), vehicle: saline with Tween-80
[15] = dose: 200.0 mg/kg/injection, schedule: Q04DX003 (ip), vehicle: saline with Tween-80
[16] = dose: 400.0 mg/kg/injection, schedule: Q01DX009 (ip), vehicle: saline with Tween-80
[17] = dose: 400.0 mg/kg/injection, schedule: Q04DX003 (ip), vehicle: saline with Tween-80
[18] = dose: 12.5 mg/kg/injection, schedule: Q01DX009 (ip), vehicle: Klucel (hydroxypropylcellulose) (HPC)
[19] = dose: 25.0 mg/kg/injection, schedule: Q01DX009 (ip), vehicle: Klucel (hydroxypropylcellulose) (HPC)
[20] = dose: 50.0 mg/kg/injection, schedule: Q01DX009 (ip), vehicle: Klucel (hydroxypropylcellulose) (HPC)
[21] = dose: 100.0 mg/kg/injection, schedule: Q04DX003 (ip), vehicle: saline
[22] = dose: 200.0 mg/kg/injection, schedule: Q04DX003 (ip), vehicle: saline
[23] = dose: 400.0 mg/kg/injection, schedule: Q04DX003 (ip), vehicle: saline
[24] = dose: 100.0 mg/kg/injection, schedule: Q04DX002 (ip), vehicle: Klucel (hydroxypropylcellulose) (HPC)
[25] = dose: 200.0 mg/kg/injection, schedule: Q04DX002 (ip), vehicle: Klucel (hydroxypropylcellulose) (HPC)
[26] = dose: 400.0 mg/kg/injection, schedule: Q04DX002 (ip), vehicle: Klucel (hydroxypropylcellulose) (HPC)

Measured: T/C

Cc1ccc(COC(=O)c2ccccc2)cc1
inactive: [1] 101 % of control | [2] 103 % of control | [3] 98 % of control | [4] 97 % of control | [5] 95 % of control | [6] 97 % of control

CC1=C(C)C2(C)C1(C)C1(C)C(C)=C(C)C21C (stereo unspecified)
inactive: dose: 100.0 mg/kg/injection, schedule: Q01DX009 (ip), vehicle: acetone 86 % of control | dose: 200.0 mg/kg/injection, schedule: Q01DX009 (ip), vehicle: acetone 86 % of control

O=[N+]([O-])c1ccc(N2CCCCC2)c([N+](=O)[O-])c1
inactive: dose: 25.0 mg/kg/injection, schedule: Q01DX009 (ip), vehicle: saline 96 % of control | dose: 50.0 mg/kg/injection, schedule: Q01DX009 (ip), vehicle: saline 102 % of control | [7] 96 % of control | [8] 98 % of control | [9] 96 % of control

CC(SC(C)C(=O)NN)C(=O)NN (stereo unspecified)
inactive: dose: 50.0 mg/kg/injection, schedule: Q01DX001 (ip), vehicle: saline 102 % of control | [10] 107 % of control | [11] 105 % of control | dose: 200.0 mg/kg/injection, schedule: Q01DX Z (ip), vehicle: carboxymethylcellulose (CMC) 94 % of control | dose: 296.0 mg/kg/injection, schedule: Q01DX Z (ip), vehicle: methylcellulose (MC) 98 % of control | dose: 370.0 mg/kg/injection, schedule: Q01DX Z (ip), vehicle: methylcellulose (MC) 104 % of control | dose: 400.0 mg/kg/injection, schedule: Q01DX001 (ip), vehicle: saline 100 % of control | dose: 400.0 mg/kg/injection, schedule: Q01DX Z (ip), vehicle: carboxymethylcellulose (CMC) 97 % of control | dose: 555.0 mg/kg/injection, schedule: Q01DX Z (ip), vehicle: methylcellulose (MC) 110 % of control | dose: 800.0 mg/kg/injection, schedule: Q01DX Z (ip), vehicle: carboxymethylcellulose (CMC) 111 % of control | dose: 833.0 mg/kg/injection, schedule: Q01DX Z (ip), vehicle: methylcellulose (MC) 119 % of control

CC(=O)OCCN1c2ccccc2Sc2cnccc21
inactive: [12] 104 % of control | [13] 104 % of control | [14] 97 % of control | [15] 110 % of control | [16] 104 % of control | [17] 104 % of control

Nc1ncc(CNc2ccc(C(=O)O)cc2)c(N)n1
inactive: [10] 103 % of control | [11] 103 % of control

CSc1cc(C)[o+]c(C)c1
inactive: [18] 108 % of control | [19] 112 % of control | [20] 105 % of control | dose: 75.0 mg/kg/injection, schedule: Q01DX009 (ip), vehicle: acetone 110 % of control | [10] 97 % of control | [1] 120 % of control | dose: 115.0 mg/kg/injection, schedule: Q01DX009 (ip), vehicle: acetone 103 % of control | dose: 170.0 mg/kg/injection, schedule: Q01DX009 (ip), vehicle: acetone 95 % of control | [11] 103 % of control | [3] 106 % of control | dose: 255.0 mg/kg/injection, schedule: Q01DX009 (ip), vehicle: acetone 110 % of control

CC12CC(Br)C(Br)CC1(C)O2 (stereo unspecified)
inactive: dose: 25.0 mg/kg/injection, schedule: Q04DX002 (ip), vehicle: gum acacia 96 % of control | dose: 50.0 mg/kg/injection, schedule: Q04DX002 (ip), vehicle: gum acacia 100 % of control | dose: 100.0 mg/kg/injection, schedule: Q04DX002 (ip), vehicle: gum acacia 104 % of control

COc1cccc(CCNC(=O)CC(=O)O)c1OC
inactive: [21] 92 % of control | [22] 103 % of control | [23] 110 % of control

CC(C)CCCC(C)C1CCC2(C)C3=C(C(=O)CC12C)C1(C)CCC(O)C(C)(C)C1/C(=N\O)C3=O (stereo unspecified)
inactive: [13] 94 % of control | [15] 96 % of control | [17] 97 % of control

OC(CCN1CCCCC1)(c1ccccc1)C1CC2C=CC1C2 (stereo unspecified)
inactive: dose: 6.25 mg/kg/injection, schedule: Q01DX009 (ip), vehicle: Klucel (hydroxypropylcellulose) (HPC) 106 % of control | [18] 105 % of control | [19] 100 % of control | dose: 25.0 mg/kg/injection, schedule: Q04DX003 (ip), vehicle: Klucel (hydroxypropylcellulose) (HPC) 106 % of control | [20] 105 % of control | dose: 50.0 mg/kg/injection, schedule: Q04DX003 (ip), vehicle: Klucel (hydroxypropylcellulose) (HPC) 97 % of control | [1] 103 % of control | [2] 95 % of control

CCN(C)C(=O)Nc1cccc([N+](=O)[O-])c1
inactive: [24] 101 % of control | [25] 93 % of control | [26] 93 % of control

c1cc[c]([Pb]([c]2ccccc2)([c]2ccccc2)[n]2ccnc2)cc1
inactive: dose: 5.0 mg/kg/injection, schedule: Q01DX001 (ip), vehicle: other 106 % of control | dose: 10.0 mg/kg/injection, schedule: Q01DX001 (ip), vehicle: other 98 % of control

O=C(c1cccnc1)n1cc2c(n1)C1=C(CCCC1)CC2
inactive: [2] 90 % of control | [4] 89 % of control | [6] 86 % of control

COC(=O)C1=C(\N2CCOCC2)CCCCC/C=C\1C(=O)OC
inactive: [12] 94 % of control | [14] 91 % of control | [16] 89 % of control

Cc1cc[n+]([O-])nc1N(C)N
inactive: dose: 50.0 mg/kg/injection, schedule: Q04DX002 (ip), vehicle: saline 101 % of control | dose: 100.0 mg/kg/injection, schedule: Q04DX002 (ip), vehicle: saline 104 % of control | dose: 200.0 mg/kg/injection, schedule: Q04DX002 (ip), vehicle: saline 96 % of control

NC(=O)/C=C/c1cccnc1
inactive: [21] 91 % of control | [22] 98 % of control | [23] 96 % of control

CCOC(=O)Cc1nc2ccccc2[nH]c1=O
inactive: dose: 50.0 mg/kg/injection, schedule: Q04DX002 (ip), vehicle: Klucel (hydroxypropylcellulose) (HPC) 107 % of control | [24] 96 % of control | [25] 96 % of control

FC1(F)SC2c3ccccc3CC2C1(F)F (stereo unspecified)
inactive: [1] 97 % of control | [3] 101 % of control | [5] 95 % of control

COC(=O)C1=CN(C(=O)OC)CCC1
inactive: dose: 100.0 mg/kg/injection, schedule: Q01DX001 (ip), vehicle: Klucel (hydroxypropylcellulose) (HPC) 95 % of control | dose: 200.0 mg/kg/injection, schedule: Q01DX001 (ip), vehicle: Klucel (hydroxypropylcellulose) (HPC) 88 % of control | dose: 400.0 mg/kg/injection, schedule: Q01DX001 (ip), vehicle: Klucel (hydroxypropylcellulose) (HPC) 92 % of control

CC(C)OC(=O)Oc1c(Cl)c(Cl)c(Cl)c(Cl)c1Cl
inactive: [1] 95 % of control | [24] 105 % of control | [3] 98 % of control | [25] 94 % of control | [26] 98 % of control

CCOP(OCC)SSCn1nc2ccc3ccccc3n2c1=O
inactive: [20] 101 % of control

CC(C)N(CCC#N)CN1C(=O)c2ccccc2C1=O
inactive: [1] 94 % of control | [3] 91 % of control

c1ccc2c(c1)ccc1[nH]c3c(c12)CCCC3
inactive: dose: 100.0 mg/kg/injection, schedule: Q01DX001 (ip), vehicle: carboxymethylcellulose (CMC) 95 % of control | dose: 200.0 mg/kg/injection, schedule: Q01DX001 (ip), vehicle: carboxymethylcellulose (CMC) 90 % of control | dose: 400.0 mg/kg/injection, schedule: Q01DX001 (ip), vehicle: carboxymethylcellulose (CMC) 97 % of control

COc1ccc(OC)c(NC(=O)Nc2cc(C)ccc2OC)c1
inactive: [2] 95 % of control | [4] 92 % of control | [6] 97 % of control

c1ccc(C2CCCCCC2)cc1
inactive: [7] 104 % of control | [8] 95 % of control | [9] 90 % of control

COC1c2c(nc3ccccc3c2C#N)-c2ccccc2C1(C)C (stereo unspecified)
inactive: [2] 106 % of control | [4] 95 % of control | [6] 104 % of control
